From the NIST ThermoML archive (doi:10.1021/je400755x)
± gives the expanded uncertainty stated by the source.

Conditions: Liquid, Closed cell (Static) method

Row | SMILES | vapor or sublimation pressure (313.05 K) [kPa] | vapor or sublimation pressure (322.92 K) [kPa] | vapor or sublimation pressure (333 K) [kPa] | vapor or sublimation pressure (342.76 K) [kPa] | vapor or sublimation pressure (352.84 K) [kPa] | vapor or sublimation pressure (362.75 K) [kPa] | vapor or sublimation pressure (369.36 K) [kPa] | vapor or sublimation pressure (298.88 K) [kPa] | vapor or sublimation pressure (308.19 K) [kPa] | vapor or sublimation pressure (313.35 K) [kPa] | vapor or sublimation pressure (323.13 K) [kPa] | vapor or sublimation pressure (323.19 K) [kPa] | vapor or sublimation pressure (323.75 K) [kPa] | vapor or sublimation pressure (333.47 K) [kPa] | vapor or sublimation pressure (343.12 K) [kPa] | vapor or sublimation pressure (343.83 K) [kPa] | vapor or sublimation pressure (352.3 K) [kPa] | vapor or sublimation pressure (353.05 K) [kPa] | vapor or sublimation pressure (363.03 K) [kPa] | vapor or sublimation pressure (369.15 K) [kPa]
1 | C=CCCC=C [1,5-hexadiene] | 56 ± 20 | 78 ± 20 | 109 ± 20 | 147 ± 20 | 197 ± 20 | 256 ± 20 | 303 ± 20 | – | – | – | – | – | – | – | – | – | – | – | – | –
2 | C=CCCl [3-chloro-1-propene] | – | – | – | – | – | – | – | 55 ± 20 | 75 ± 20 | 90 ± 20 | 125 ± 20 | 126 ± 20 | 126 ± 20 | 173 ± 20 | 228 ± 20 | 233 ± 20 | 294 ± 20 | 301 ± 20 | 389 ± 20 | 454 ± 20
